Experimental data from paper PMC12090182, “Repurposing of the RIPK1-Selective Benzo[1,4]oxazepin-4-one Scaffold for the Development of a Type III LIMK1/2 Inhibitor” (ACS Chemical Biology, 2025).

Assays:
LIMK1 = LIMK1 (Homo sapiens, UniProt P53667); experiment: NanoBRET cellular target engagement; assay type: cell-based; design: purchased Carna Biosciences; conditions: LIMK1, HEK293T cells
Description: (§1) The assay was performed as described previously.[31],[32] In brief, full-length LIMK1/2, RIPK1, BTK, and LRRK2 cloned in a frame in a NanoLuc-vector (Promega) were transfected into HEK293T cells (ATCC CRL-1573) using FuGENE HD (Promega, E2312), and proteins were allowed to express for 20 h. The serially diluted inhibitor and NanoBRET Kinase Tracer (Promega) used at the previously determined Tracer KD,app (Table S1) were pipetted into white 384-well plates (Greiner 781 207) using an ECHO 550 acoustic dispenser (Labcyte). The corresponding transfected cells were added and reseeded at a density of 2 × 10^5 cells/mL after trypsinization and resuspension in Opti-MEM without phenol red (Life Technologies). The system was allowed to equilibrate for 2 h at 37 °C and 5% CO2 prior to BRET measurements. To measure BRET, a NanoBRET Nano-Glo substrate and an extracellular NanoLuc inhibitor (Promega, N2160) were added as per the manufacturer's protocol, and filtered luminescence was measured on a PHERAstar plate reader (BMG Labtech) equipped with a luminescence filter pair (a 450 nm BP filter (donor) and a 610 nm LP filter (acceptor)). Competitive displacement data were then plotted using GraphPad Prism 10 software using a normalized three-parameter curve fit with the following equation: Y = 100/( [drawing 1] ).

LIMK2 = LIMK2 (Homo sapiens, UniProt P53671); experiment: NanoBRET cellular target engagement; assay type: cell-based; design: full-length LIMK1/2, RIPK1, BTK, and LRRK2 cloned in a frame in a NanoLuc-vector (Promega); host or cells: HEK293T; conditions: LIMK2, HEK293T cells
Description: as §1

Chain of LIMK2 (P53671 whole entry): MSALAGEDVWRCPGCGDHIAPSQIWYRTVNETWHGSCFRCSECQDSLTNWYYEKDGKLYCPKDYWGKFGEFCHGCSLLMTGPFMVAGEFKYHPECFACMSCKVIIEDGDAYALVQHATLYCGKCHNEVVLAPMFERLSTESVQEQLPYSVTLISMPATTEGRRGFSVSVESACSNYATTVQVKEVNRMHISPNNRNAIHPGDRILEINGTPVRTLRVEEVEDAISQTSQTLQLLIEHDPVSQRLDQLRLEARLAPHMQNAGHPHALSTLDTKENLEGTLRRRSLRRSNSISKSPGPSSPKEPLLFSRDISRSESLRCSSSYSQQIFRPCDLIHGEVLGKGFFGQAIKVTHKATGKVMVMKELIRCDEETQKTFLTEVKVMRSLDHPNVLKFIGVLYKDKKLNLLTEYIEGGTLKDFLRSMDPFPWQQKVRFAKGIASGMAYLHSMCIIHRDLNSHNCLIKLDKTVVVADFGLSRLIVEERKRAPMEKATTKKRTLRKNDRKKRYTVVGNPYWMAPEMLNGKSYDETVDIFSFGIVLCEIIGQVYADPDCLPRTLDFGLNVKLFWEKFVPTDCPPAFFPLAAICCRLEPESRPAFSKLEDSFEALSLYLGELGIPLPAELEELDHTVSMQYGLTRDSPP
Chain of LIMK1 (P53667 whole entry): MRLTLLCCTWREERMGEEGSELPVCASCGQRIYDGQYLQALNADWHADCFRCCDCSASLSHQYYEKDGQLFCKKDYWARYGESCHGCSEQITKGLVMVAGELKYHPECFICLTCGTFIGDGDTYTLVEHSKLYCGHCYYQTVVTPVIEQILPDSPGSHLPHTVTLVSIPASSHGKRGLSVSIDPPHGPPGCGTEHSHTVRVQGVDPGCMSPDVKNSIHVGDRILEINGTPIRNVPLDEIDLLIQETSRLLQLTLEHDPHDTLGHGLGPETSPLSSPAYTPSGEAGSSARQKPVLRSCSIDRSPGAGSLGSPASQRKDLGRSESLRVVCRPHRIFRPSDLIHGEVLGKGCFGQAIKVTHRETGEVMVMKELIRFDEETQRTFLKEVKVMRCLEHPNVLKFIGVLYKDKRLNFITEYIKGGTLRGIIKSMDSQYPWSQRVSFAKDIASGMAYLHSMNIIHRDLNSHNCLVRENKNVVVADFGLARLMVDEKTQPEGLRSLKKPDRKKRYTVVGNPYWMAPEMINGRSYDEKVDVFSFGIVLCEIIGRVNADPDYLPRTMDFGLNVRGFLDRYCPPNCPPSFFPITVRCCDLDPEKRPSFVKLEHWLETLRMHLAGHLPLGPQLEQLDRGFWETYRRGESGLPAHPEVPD

SMILES: CN1C(=O)[C@@H](N2CCc3cn(Cc4ccccc4)nc3C2=O)COc2ccccc21 [TP-030-1]
- EC50 (LIMK1): 42 µM
- EC50 (LIMK2): 38 µM
